Test results from ChEMBL document CHEMBL3044957, “Synthesis and biological evaluation of some N 4-aryl-substituted 5-fluoroisatin-3-thiosemicarbazones” (Med Chem Res, 2013).
The source made the active and inactive calls. The calls are words filed in the database; no cut-off is given here.

Key:
[1] = Toxicity against Artemia salina (brine shrimp) assessed as mortality after 24 hr; assay type: organism-based; settings: in vivo, read-out: LD50
Lemna aequinoctialis [2] = experiment: Phytotoxicity against Lemna aequinoctialis assessed as growth inhibition at 50 ug/ml after 7 days relative to control; assay type: functional; settings: 168 h, read-out: GI
Nakaseomyces glabratus = experiment: Growth inhibition of Candida glabrata at 200 ug/ml after 7 days; assay type: functional; settings: 168 h
Aspergillus flavus = experiment: Growth inhibition of Aspergillus flavus at 200 ug/ml after 7 days; assay type: functional; settings: 168 h
Trichophyton longifusum = experiment: Growth inhibition of Trichophyton longifusum at 200 ug/ml after 7 days; assay type: functional; settings: 168 h
Microsporum canis = experiment: Growth inhibition of Arthroderma otae at 200 ug/ml after 7 days; assay type: functional; settings: 168 h
[3] = target: Urease (Canavalia ensiformis) (UniProt P07374); experiment: Inhibition of Canavalia ensiformis (jack bean) urease assessed as inhibition of ammonia production at 200 uM after 15 min by indophenol method
Lemna aequinoctialis [4] = experiment: Phytotoxicity against Lemna aequinoctialis assessed as growth inhibition at 500 ug/ml after 7 days relative to control; assay type: functional; settings: 168 h, read-out: GI
Fusarium solani = experiment: Growth inhibition of Fusarium solani at 200 ug/ml after 7 days; assay type: functional; settings: 168 h
Candida albicans = experiment: Growth inhibition of Candida albicans at 200 ug/ml after 7 days; assay type: functional; settings: 168 h
Lemna aequinoctialis [5] = experiment: Phytotoxicity against Lemna aequinoctialis assessed as growth inhibition at 5 ug/ml after 7 days relative to control; assay type: functional; settings: 168 h, read-out: GI
Urease = Urease (Canavalia ensiformis, UniProt P07374); experiment: Inhibition of Canavalia ensiformis (jack bean) urease assessed as inhibition of ammonia production after 15 min by indophenol method
[6] = target: Urease (Canavalia ensiformis) (UniProt P07374); experiment: Inhibition of Canavalia ensiformis (jack bean) urease assessed as inhibition of ammonia production at 500 uM after 15 min by indophenol method
[7] = target: Urease (Canavalia ensiformis) (UniProt P07374); experiment: Inhibition of Canavalia ensiformis (jack bean) urease assessed as inhibition of ammonia production at 100 uM after 15 min by indophenol method
Homo sapiens = species: Homo sapiens; experiment: Inhibition of […] urease-mediated ammonia production at 100 uM after 15 min by indophenol method
Lemna aequinoctialis [8] = experiment: Phytotoxicity against Lemna aequinoctialis assessed as growth inhibition at 0.015 g/ml after 7 days relative to control; assay type: functional

Chain of Urease (P07374 whole entry): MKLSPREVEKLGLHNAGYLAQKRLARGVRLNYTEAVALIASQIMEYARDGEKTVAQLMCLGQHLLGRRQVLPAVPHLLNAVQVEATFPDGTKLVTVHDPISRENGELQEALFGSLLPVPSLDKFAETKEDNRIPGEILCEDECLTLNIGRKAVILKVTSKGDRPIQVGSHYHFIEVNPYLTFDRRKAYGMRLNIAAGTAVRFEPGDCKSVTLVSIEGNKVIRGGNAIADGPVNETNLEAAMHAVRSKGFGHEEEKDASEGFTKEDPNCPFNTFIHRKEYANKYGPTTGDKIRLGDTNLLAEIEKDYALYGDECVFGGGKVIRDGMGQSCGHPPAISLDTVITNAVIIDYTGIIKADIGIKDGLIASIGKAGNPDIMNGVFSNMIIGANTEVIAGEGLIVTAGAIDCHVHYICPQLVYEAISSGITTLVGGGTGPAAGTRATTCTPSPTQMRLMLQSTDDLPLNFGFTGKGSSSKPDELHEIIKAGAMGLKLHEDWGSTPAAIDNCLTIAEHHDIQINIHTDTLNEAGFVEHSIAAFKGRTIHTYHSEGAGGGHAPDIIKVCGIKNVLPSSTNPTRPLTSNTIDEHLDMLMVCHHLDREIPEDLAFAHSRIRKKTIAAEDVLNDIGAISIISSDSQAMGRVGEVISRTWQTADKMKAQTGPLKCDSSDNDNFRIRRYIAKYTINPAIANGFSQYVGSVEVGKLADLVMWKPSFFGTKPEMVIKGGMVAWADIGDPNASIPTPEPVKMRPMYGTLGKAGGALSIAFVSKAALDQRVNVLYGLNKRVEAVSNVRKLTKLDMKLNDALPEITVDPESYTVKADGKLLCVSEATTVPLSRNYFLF
Chain of Urease (Canavalia ensiformis) (P07374 whole entry, looked up): as the sequence (P07374 whole entry) above

| Structure (SMILES) | LC50 at 24 h [1] | inhibition of growth at 50 µg/mL (Lemna aequinoctialis [2]) | inhibition at 200 µg/mL (Nakaseomyces glabratus) | inhibition at 200 µg/mL (Aspergillus flavus) | inhibition at 200 µg/mL (Trichophyton longifusum) | inhibition at 200 µg/mL (Microsporum canis) | inhibition [3] | inhibition of growth at 500 µg/mL (Lemna aequinoctialis [4]) | inhibition at 200 µg/mL (Fusarium solani) | inhibition at 200 µg/mL (Candida albicans) | inhibition of growth at 5 µg/mL (Lemna aequinoctialis [5]) | IC50 (Urease) | inhibition [6] | IC50 (Urease; read-out: IC50) | inhibition [7] | inhibition (Homo sapiens) | growth inhibition (GI) (Lemna aequinoctialis [8]) |
| --- | --- | --- | --- | --- | --- | --- | --- | --- | --- | --- | --- | --- | --- | --- | --- | --- | --- |
| O=C1Nc2ccc(F)cc2/C1=N/NC(=S)Nc1ccc(Br)cc1F | > 49.1 µM | 25% | 0% | 0% | 0% | 20% | 21.9% | 30% | 10% | 0% | 10% | Not Active | – | – | – | – | – |
| O=C1Nc2ccc(F)cc2/C1=N/NC(=S)Nc1ccc(OC(F)(F)F)cc1 | > 50.3 µM | 20% | 0% | 10% | 0% | 30% | – | 35% | 0% | 0% | 10% | Not Active | 18.9% | – | – | – | – |
| O=C1Nc2ccc(F)cc2/C1=N/NC(=S)Nc1cccc(C(F)(F)F)c1 | > 52.4 µM | 10% | 0% | 30% | 0% | 30% | – | 30% | 25% | 0% | 0% | – | 92.6% | 59.9 µM | – | – | – |
| NC(N)=S | – | – | – | – | – | – | – | – | – | – | – | – | 99% | – | – | – | – |
| O=C1Nc2ccc(F)cc2/C1=N/NC(=S)Nc1c(F)cccc1F | 115 µM | 10% | 0% | 40% | 0% | 40% | – | 30% | 0% | 0% | 0% | – | 72.5% | 47.3 µM | – | – | – |
| O=C1Nc2ccccc2/C1=N/NC(=S)Nc1cccc(F)c1 | – | – | – | – | – | – | – | – | – | – | – | – | – | 50.6 µM | 57.3% | – | – |
| O=C1Nc2ccccc2/C1=N/NC(=S)Nc1c(F)cccc1F | – | – | – | – | – | – | – | – | – | – | – | – | – | 33.1 µM | 92% | – | – |
| O=C1Nc2ccc(F)cc2/C1=N/NC(=S)Nc1ccc(F)cc1F | > 57.1 µM | 20% | 0% | 40% | 0% | 35% | – | 30% | 15% | 0% | 10% | Not Active | 22.1% | – | – | – | – |
| O=C1Nc2ccc(F)cc2/C1=N/NC(=S)Nc1ccc(F)cc1 | 97.9 µM | 25% | 0% | 0% | 0% | 15% | – | 35% | 10% | 0% | 10% | Not Active | 45.6% | – | – | – | – |
| O=C1Nc2ccc(F)cc2/C1=N/NC(=S)Nc1cc(F)cc(F)c1 | 107 µM | 10% | 0% | 0% | 0% | 40% | – | 15% | 0% | 0% | 0% | – | 80.2% | 151 µM | – | – | – |
| O=C1Nc2ccc(F)cc2/C1=N/NC(=S)Nc1ccccc1F | 279 µM | 25% | 0% | 0% | 0% | 30% | – | 35% | 20% | 0% | 20% | – | 94.6% | 37.7 µM | – | – | – |
| O=C1Nc2ccccc2/C1=N/NC(=S)Nc1ccccc1C(F)(F)F | – | – | – | – | – | – | – | – | – | – | – | – | – | 33.1 µM | 63.1% | – | – |
| O=C1Nc2ccccc2/C1=N/NC(=S)Nc1ccccc1 | > 338 µM | 25% | – | – | – | – | – | 40% | – | – | 15% | – | – | – | – | inactive | – |
| O=C1Nc2ccccc2/C1=N/NC(=S)Nc1cccc(C(F)(F)F)c1 | – | – | – | – | – | – | – | – | – | – | – | – | – | 20.6 µM | 78.2% | – | – |
| O=C1Nc2ccccc2/C1=N/NC(=S)Nc1cc(F)cc(F)c1 | – | – | – | – | – | – | – | – | – | – | – | – | – | – | 38.8% | – | – |
| O=C1Nc2ccc(F)cc2/C1=N/NC(=S)Nc1ccccc1 | 68.9 µM | 15% | 0% | 0% | 0% | 20% | – | 70% | 0% | 0% | 10% | – | 53% | 343 µM | – | – | – |
| O=C1Nc2ccc(F)cc2/C1=N/NC(=S)Nc1cccc(F)c1 | 121 µM | 25% | 0% | 10% | 0% | 25% | 79.8% | 30% | 15% | 0% | 15% | – | – | 45.3 µM | – | – | – |
| C[n+]1ccc(-c2cc[n+](C)cc2)cc1 | – | – | – | – | – | – | – | – | – | – | – | – | – | – | – | – | 100% |
| O=C1Nc2ccccc2/C1=N/NC(=S)Nc1ccccc1F | – | – | – | – | – | – | – | – | – | – | – | – | – | 20.6 µM | 84.9% | – | – |
| O=C1Nc2ccccc2/C1=N/NC(=S)Nc1ccc(C(F)(F)F)cc1 | – | – | – | – | – | – | – | – | – | – | – | – | – | 50.6 µM | 44.6% | – | – |
| O=C1Nc2ccccc2/C1=N/NC(=S)Nc1ccc(OC(F)(F)F)cc1 | – | – | – | – | – | – | – | – | – | – | – | – | – | 20.6 µM | 49.6% | – | – |
| O=C1Nc2ccc(F)cc2/C1=N/NC(=S)Nc1ccc(C(F)(F)F)cc1 | 176 µM | 15% | 0% | 20% | 0% | 25% | 53.4% | 25% | 5% | 0% | 10% | – | – | 90.4 µM | – | – | – |
| O=C1Nc2ccc(F)cc2/C1=N/NC(=S)Nc1ccccc1C(F)(F)F | > 52.4 µM | 10% | 0% | 15% | 0% | 20% | 77.3% | 25% | 0% | 0% | 5% | – | – | 50.5 µM | – | – | – |
| O=C1Nc2ccccc2/C1=N/NC(=S)Nc1ccc(F)cc1F | – | – | – | – | – | – | – | – | – | – | – | – | – | 47.6 µM | 71.9% | – | – |
